Experimental findings from US9725465B2, “Biaryl acetamide compounds and methods of use thereof” (Ambit Biosciences Corporation, priority 2013, dated 2017) are described below.

Structures are written as SMILES. Counter-ions that a name gives are not always drawn.

In general, IC50 refers to the midpoint of a concentration-inhibition curve.

Sequence of FLT3-ITD (P36888 other isoform, or with tags, fused parts or gaps limits assumed, stated change not applied): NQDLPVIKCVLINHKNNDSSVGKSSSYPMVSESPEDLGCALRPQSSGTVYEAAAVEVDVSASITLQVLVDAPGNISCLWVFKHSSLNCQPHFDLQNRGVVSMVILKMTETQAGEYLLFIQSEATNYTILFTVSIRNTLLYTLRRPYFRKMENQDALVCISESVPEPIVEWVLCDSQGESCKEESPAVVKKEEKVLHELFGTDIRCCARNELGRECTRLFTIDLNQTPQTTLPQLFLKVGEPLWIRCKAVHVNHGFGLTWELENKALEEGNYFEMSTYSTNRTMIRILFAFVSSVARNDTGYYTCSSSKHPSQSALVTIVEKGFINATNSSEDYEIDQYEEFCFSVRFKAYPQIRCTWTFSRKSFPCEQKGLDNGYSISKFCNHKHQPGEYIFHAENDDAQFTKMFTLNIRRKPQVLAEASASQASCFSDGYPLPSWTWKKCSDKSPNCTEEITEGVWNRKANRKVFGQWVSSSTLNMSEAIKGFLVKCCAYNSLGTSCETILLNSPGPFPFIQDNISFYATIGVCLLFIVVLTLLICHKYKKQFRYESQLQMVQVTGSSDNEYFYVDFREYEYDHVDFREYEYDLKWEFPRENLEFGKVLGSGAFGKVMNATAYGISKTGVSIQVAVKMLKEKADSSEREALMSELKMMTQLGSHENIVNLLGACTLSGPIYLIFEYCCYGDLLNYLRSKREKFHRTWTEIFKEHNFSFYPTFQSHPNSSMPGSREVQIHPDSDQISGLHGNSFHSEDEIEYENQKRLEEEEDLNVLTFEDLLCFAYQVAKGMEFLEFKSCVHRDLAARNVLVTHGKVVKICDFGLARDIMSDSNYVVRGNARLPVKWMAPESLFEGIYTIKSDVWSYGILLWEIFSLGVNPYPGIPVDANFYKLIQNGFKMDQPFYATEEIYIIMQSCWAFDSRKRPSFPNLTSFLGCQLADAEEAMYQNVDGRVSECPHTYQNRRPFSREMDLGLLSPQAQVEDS

The assay concerns the target FLT3-ITD (Homo sapiens (Human), UniProt P36888, INS600HVDFREYEYD). The assay is described as follows: pFLT3 MSD assay, Ba/F3 FLT3-ITD. Format: cell-based. To be noted: Ba/F3 FLT3-ITD cells, 2 hours, read-out: BaF3-FLT3-ITD pFlt3 IC50.
For `O=C(Cc1ccc(-c2cnc3[nH]ccc3c2)cc1F)Nc1cc(C2(C(F)(F)F)CC2)on1` [Example 28, 2-(2-fluoro-4-(1H-pyrrolo[2,3-b]pyridin-5-yl)phenyl)-N-(5-(1-(trifluoromethyl)cyclopropyl)isoxazol-3-yl)acetamide], the IC50 was below 10 nM.

Regarding `CC(C)(c1cc(NC(=O)Cc2ccc(-c3cnc4[nH]ccc4c3)cc2F)no1)C(F)(F)F` [Example 29, 2-(2-fluoro-4-(1H-pyrrolo[2,3-b]pyridin-5-yl)phenyl)-N-(5-(1,1,1-trifluoro-2-methylpropan-2-yl)isoxazol-3-yl)acetamide], the IC50 was below 10 nM.

As to `O=C(Cc1ccc(-c2cnc3[nH]ccc3n2)cc1F)Nc1cc(C2(C(F)(F)F)CC2)on1` [Example 30, 2-(2-fluoro-4-(5H-pyrrolo[2,3-b]pyrazin-2-yl)phenyl)-N-(5-(1-(trifluoromethyl)cyclopropyl)isoxazol-3-yl)acetamide], the IC50 is below 10 nM.

Regarding `CC(C)(C)c1cc(NC(=O)Cc2ccc(-c3cnc4[nH]ncc4c3)cc2)no1` [Example 31, 2-(4-(1H-pyrazolo[3,4-b]pyridin-5-yl)phenyl)-N-(5-(tert-butyl)isoxazol-3-yl)acetamide], the IC50 was below 10 nM.

Consider `CC(C)(C)c1cc(NC(=O)Cc2ccc(-c3cnc4[nH]ncc4c3)cc2F)no1` [Example 32, N-(5-(tert-butyl)isoxazol-3-yl)-2-(2-fluoro-4-(1H-pyrazolo[3,4-b]pyridin-5-yl)phenyl)acetamide], for which the IC50 is below 10 nM.

Consider `O=C(Cc1ccc(-c2cnc3[nH]ncc3c2)cc1F)Nc1cc(C2(C(F)(F)F)CC2)on1` [Example 33, 2-(2-fluoro-4-(1H-pyrazolo[3,4-b]pyridin-5-yl)phenyl)-N-(5-(1-(trifluoromethyl)cyclopropyl)isoxazol-3-yl)acetamide], for which the IC50 was below 10 nM.

`CC(C)(c1cc(NC(=O)Cc2ccc(-c3cnc4[nH]ncc4c3)cc2F)no1)C(F)(F)F` [Example 34, 2-(2-fluoro-4-(1H-pyrazolo[3,4-b]pyridin-5-yl)phenyl)-N-(5-(1,1,1-trifluoro-2-methylpropan-2-yl)isoxazol-3-yl)acetamide]: the IC50 was below 10 nM.

Consider `COc1n[nH]c2ncc(-c3ccc(CC(=O)Nc4cc(C(C)(C)C(F)(F)F)on4)cc3)cc12` [Example 35, 2-(4-(3-methoxy-1H-pyrazolo[3,4-b]pyridin-5-yl)phenyl)-N-(5-(1,1,1-trifluoro-2-methylpropan-2-yl)isoxazol-3-yl)acetamide], for which the IC50 was below 10 nM.

Take `COc1cc(OC)c2cc(-c3ccc(CC(=O)Nc4cc(C5(C(F)(F)F)CC5)on4)c(F)c3)cnc2c1` [Example 36, 2-(4-(5,7-dimethoxyquinolin-3-yl)-2-fluorophenyl)-N-(5-(1-(trifluoromethyl)cyclopropyl)isoxazol-3-yl)acetamide]: the IC50 was below 10 nM.

For `CC(C)(C)c1cc(NC(=O)Cc2ccc(-c3cnc4[nH]nc(C#N)c4c3)cc2)no1` [Example 37, N-(5-(tert-butyl)isoxazol-3-yl)-2-(4-(3-cyano-1H-pyrazolo[3,4-b]pyridin-5-yl)phenyl)acetamide], the IC50 is below 10 nM.

Regarding `CC(C)(C)c1cc(NC(=O)Cc2ccc(-c3cnc4[nH]nc(Cl)c4c3)cc2)no1` [Example 38, N-(5-(tert-butyl)isoxazol-3-yl)-2-(4-(3-chloro-1H-pyrazolo[3,4-b]pyridin-5-yl)phenyl)acetamide], the IC50 is below 10 nM.

With `CCOc1n[nH]c2ncc(-c3ccc(CC(=O)Nc4cc(C(C)(C)C(F)(F)F)on4)cc3)cc12` [Example 39, 2-(4-(3-ethoxy-1H-pyrazolo[3,4-b]pyridin-5-yl)phenyl)-N-(5-(1,1,1-trifluoro-2-methylpropan-2-yl)isoxazol-3-yl)acetamide], the half-maximal inhibitory concentration (IC50) is below 10 nM.

Take `Cc1n[nH]c2ncc(-c3ccc(CC(=O)Nc4cc(C(C)(C)C)on4)cc3)cc12` [Example 40, N-(5-(tert-butyl)isoxazol-3-yl)-2-(4-(3-methyl-1H-pyrazolo[3,4-b]pyridin-5-yl)phenyl)acetamide]: the IC50 was below 10 nM.

With `CC(C)(c1cc(NC(=O)Cc2ccc(-c3cnc4[nH]nnc4c3)cc2)no1)C(F)(F)F` [Example 41, 2-(4-(3H-[1,2,3]triazolo[4,5-b]pyridin-6-yl)phenyl)-N-(5-(1,1,1-trifluoro-2-methylpropan-2-yl)isoxazol-3-yl)acetamide], the IC50 is below 10 nM.

As for `COc1cc2ncc(-c3ccc(CC(=O)Nc4cc(C5(C(F)(F)F)CC5)on4)cc3F)nc2cc1OC` [Example 42, 2-(4-(6,7-dimethoxyquinoxalin-2-yl)-3-fluorophenyl)-N-(5-(1-(trifluoromethyl)cyclopropyl)isoxazol-3-yl)acetamide], the IC50 is below 10 nM.

Take `COc1cc2ncc(-c3ccc(CC(=O)Nc4cc(C(C)(C)C)on4)c(F)c3)nc2cc1OC` [Example 43, N-(5-(tert-butyl)isoxazol-3-yl)-2-(4-(6,7-dimethoxyquinoxalin-2-yl)-2-fluorophenyl)acetamide]: the IC50 was below 10 nM.

Take `CC(C)(c1cc(NC(=O)Cc2ccc(-c3cnc4[nH]ncc4c3)cc2)no1)C(F)(F)F` [Example 44, 2-(4-(1H-pyrazolo[3,4-b]pyridin-5-yl)phenyl)-N-(5-(1,1,1-trifluoro-2-methylpropan-2-yl)isoxazol-3-yl)acetamide]: the IC50 is below 10 nM.

For the molecule `CN(C)C(=O)c1n[nH]c2ncc(-c3ccc(CC(=O)Nc4cc(C(C)(C)C)on4)cc3)cc12` [Example 45, 5-(4-(2-((5-(tert-butyl)isoxazol-3-yl)amino)-2-oxoethyl)phenyl)-N,N-dimethyl-1H-pyrazolo[3,4-b]pyridine-3-carboxamide], the IC50 is below 10 nM.

For `COCCOc1n[nH]c2ncc(-c3ccc(CC(=O)Nc4cc(C(C)(C)C(F)(F)F)on4)cc3)cc12` [Example 47, 2-(4-(3-(2-methoxyethoxy)-1H-pyrazolo[3,4-b]pyridin-5-yl)phenyl)-N-(5-(1,1,1-trifluoro-2-methylpropan-2-yl)isoxazol-3-yl)acetamide], the IC50 is below 10 nM.

As to `CC(C)(c1cc(NC(=O)Cc2ccc(-c3cnc4[nH]nc(OC5CCNCC5)c4c3)cc2)no1)C(F)(F)F` [Example 48, 2-(4-(3-(piperidin-4-yloxy)-1H-pyrazolo[3,4-b]pyridin-5-yl)phenyl)-N-(5-(1,1,1-trifluoro-2-methylpropan-2-yl)isoxazol-3-yl)acetamide formate salt], the IC50 is below 10 nM.

On to `CN(C)C(=O)c1cc2cc(-c3ccc(CC(=O)Nc4cc(C(C)(C)C)on4)cc3)cnc2[nH]1` [Example 49, 5-(4-(2-((5-(tert-butyl)isoxazol-3-yl)amino)-2-oxoethyl)phenyl)-N,N-dimethyl-1H-pyrrolo[2,3-b]pyridine-2-carboxamide], for which the IC50 was below 10 nM.

For `CC(C)(C)c1cc(NC(=O)Cc2ccc(-c3cnc4[nH]c(CO)cc4c3)cc2)no1` [Example 50, N-(5-(tert-butyl)isoxazol-3-yl)-2-(4-(2-(hydroxymethyl)-1H-pyrrolo[2,3-b]pyridin-5-yl)phenyl)acetamide], the IC50 is below 10 nM.

As to `Cc1n[nH]c2ncc(-c3ccc(CC(=O)Nc4cc(C(C)(C)C)on4)c(F)c3)cc12` [Example 51, N-(5-(tert-butyl)isoxazol-3-yl)-2-(2-fluoro-4-(3-methyl-1H-pyrazolo[3,4-b]pyridin-5-yl)phenyl)acetamide], the IC50 was below 10 nM.

Regarding `CN(C)Cc1cc2cc(-c3ccc(CC(=O)Nc4cc(C(C)(C)C)on4)cc3)cnc2[nH]1` [Example 52, N-(5-(tert-butyl)isoxazol-3-yl)-2-(4-(2-((dimethylamino)methyl)-1H-pyrrolo[2,3-b]pyridin-5-yl)phenyl)acetamide], the IC50 was below 10 nM.

Consider `COc1n[nH]c2ncc(-c3ccc(CC(=O)Nc4cc(C5(C(F)(F)F)CC5)on4)c(F)c3)cc12` [Example 53, 2-(2-fluoro-4-(3-methoxy-1H-pyrazolo[3,4-b]pyridin-5-yl)phenyl)-N-(5-(1-(trifluoromethyl)cyclopropyl)isoxazol-3-yl)acetamide], for which the IC50 was below 10 nM.

Turning to `CNCc1c[nH]c2ncc(-c3ccc(CC(=O)Nc4cc(C(C)(C)C)on4)cc3)cc12` [Example 54, N-(5-(tert-butyl)isoxazol-3-yl)-2-(4-(3-((methylamino)methyl)-1H-pyrrolo[2,3-b]pyridin-5-yl)phenyl)acetamide], the IC50 lay in the range of 10 to 20 nM.

For `CC(C)(C)c1cc(NC(=O)Cc2ccc(-c3cnc4[nH]nc(CO)c4c3)cc2F)no1` [Example 55, N-(5-(tert-butyl)isoxazol-3-yl)-2-(2-fluoro-4-(3-(hydroxymethyl)-1H-pyrazolo[3,4-b]pyridin-5-yl)phenyl)acetamide], the half-inhibitory concentration (IC50) is below 10 nM.

For the molecule `O=C(Cc1ccc(-c2cnc3[nH]ncc3c2)cc1F)Nc1cc(C2(C(F)(F)F)CCC2)on1` [Example 56, 2-(2-Fluoro-4-(1H-pyrazolo[3,4-b]pyridin-5-yl)phenyl)-N-(5-(1-(trifluoromethyl)cyclobutyl)isoxazol-3-yl)acetamide], the IC50 was below 10 nM.

Consider `CNCc1n[nH]c2ncc(-c3ccc(CC(=O)Nc4cc(C(C)(C)C)on4)c(F)c3)cc12` [Example 57, N-(5-(tert-butyl)isoxazol-3-yl)-2-(2-fluoro-4-(3-((methylamino)methyl)-1H-pyrazolo[3,4-b]pyridin-5-yl)phenyl)acetamide], for which the half-maximal inhibitory concentration (IC50) was below 10 nM.

As to `CN(C)Cc1n[nH]c2ncc(-c3ccc(CC(=O)Nc4cc(C(C)(C)C)on4)c(F)c3)cc12` [Example 58, N-(5-(tert-butyl)isoxazol-3-yl)-2-(4-(3-((dimethylamino)methyl)-1H-pyrazolo[3,4-b]pyridin-5-yl)-2-fluorophenyl)acetamide], the IC50 was below 10 nM.

As for `CN(C)Cc1c[nH]c2ncc(-c3ccc(CC(=O)Nc4cc(C(C)(C)C)on4)cc3)cc12` [Example 59, N-(5-(tert-butyl)isoxazol-3-yl)-2-(4-(3-((dimethylamino)methyl)-1H-pyrrolo[2,3-b]pyridin-5-yl)phenyl)acetamide formate salt], the IC50 is below 10 nM.

As for `CC(C)(C)c1cc(NC(=O)Cc2ccc(-c3cnc4[nH]cc(CO)c4c3)cc2)no1` [Example 60, N-(5-(tert-butyl)isoxazol-3-yl)-2-(4-(3-(hydroxymethyl)-1H-pyrrolo[2,3-b]pyridin-5-yl)phenyl)acetamide], the IC50 is below 10 nM.
